One assay concerns Rhodotorula rubra. Kind of assay: minimum inhibitory concentration, broth two-fold serial dilution test, Rhodotorula rubra. Type of assay: cell-based. The note with it: lowest concentration with complete inhibition of growth; for MIC: Rhodotorula, TSB media, read-out: MIC (TSB media) Rrub. On the procedure:
(§1) Bactericidal and fungicidal evaluations of the compounds of Example 5 were carried out.
(§2) A minimum inhibitory concentration (MIC) value is obtained using a broth, two-fold serial dilution test performed as follows: A stock solution or dispersion of the test compound, typically at a concentration of 1%, is made in a 5:3:2 solvent solution of acetone, methanol, and water. A volume of the stock solution is dispensed into culture media to give an initial starting test concentration of 500 ppm compound.
(§3) When the test is ready to be done, each vessel in the dilution series, except the first vessel, contains an equal volume of compound free broth. The first vessel contains twice the volume of broth with the starting concentration of test compound. One half of the broth from the first vessel is transferred to the second vessel. After being mixed, one half the resulting volume is removed from the second vessel and transferred to the third vessel. The entire cycle is repeated sufficiently to give a series of concentrations amounting to 500, 250, 125, 63, 31, 16, 8 and 4, 2, 1, 0.5, 0.25 ppm respectively.
(§4) Each vessel is then inoculated with a cell suspension of the appropriate test organism. Bacteria are grown in broth, fungi or agar slants for a time and at a temperature appropriate to the species being tested, and algae are a mixture of green algae and blue-green bacteria grown in a nutrient media. At the end of the growth period, in the case of bacteria, the broth is vortexed to disperse the cells.
(§5) In the case of fungi, the spores are harvested by pipetting water onto the slant and dislodging the spores with a sterile loop. The cell/spore suspension is standardized by controlling incubation time, temperature, and the volume of the diluent. The suspension is then used to inoculate the vessels containing the broth compound.
(§6) The vessels are then incubated at the appropriate temperature. After the incubation, the vessels are examined for growth/no growth. The minimum inhibitory concentration (MIC) is defined as the lowest concentration of compounds that results in complete inhibition of growth of the test organism.
4. Rhodotorula rubra Rrub

The subject of a further assay is Pseudomonas aeruginosa. Kind of assay: minimum inhibitory concentration, broth two-fold serial dilution test, Pseudomonas aeruginosa. Type of assay: cell-based, Pseudomonas aeruginosa ATCC 15442. The note with it: for MIC (TSB media) Psae: Pseudomonas aeruginosa ATCC 15442, lowest concentration with complete inhibition of growth; for MIC: Pseudomonas aeruginosa, ATCC15442, Pseudomonas aeruginosa ATCC 15442, TSB media, lowest concentration with complete inhibition of growth, read-out: MIC (TSB media) Psae. On the procedure: as §1, §2, §3, §4, §6
1. Pseudomonas aeruginosa

A further assay has as its system Aspergillus niger. Kind of assay: minimum inhibitory concentration, broth two-fold serial dilution test, Aspergillus niger. The note with it: for MIC (TSB media) Anig: Aspergillus niger ATCC 6275, lowest concentration with complete inhibition of growth; for MIC: Aspergillus niger, ATCC6275, Aspergillus niger ATCC 6275, TSB media, lowest concentration with complete inhibition of growth, read-out: MIC (TSB media) Anig. The assay is classed as cell-based, Aspergillus niger ATCC 6275. On the procedure: as §1, §2, §3, §4, §5, §6
3. Aspergillus niger 6275 Anig

In the next assay the test system is Escherichia coli. Briefly: minimum inhibitory concentration, broth two-fold serial dilution test, Escherichia coli. Type of assay: cell-based, Escherichia coli ATCC 11229. The note with it: for MIC (TSB media) Ecol: Escherichia coli ATCC 11229, lowest concentration with complete inhibition of growth; for MIC: Escherichia coli, ATCC11229, Escherichia coli ATCC 11229, TSB media, lowest concentration with complete inhibition of growth, read-out: MIC (TSB media) Ecol. Here is the method: as §1, §2, §3, §4, §6

Take `CCCCCCCCCCCCCC[N+]1(CC#CBr)CCCCC1C` (stereo not drawn) [Compound 15, 1-tetradecyl-1-(3-bromopropargyl)-(2-methyl)piperidinium methanesulfonate]: in the assay with Rhodotorula rubra, the “MIC (TSB media) Rrub” value is recorded as less than 1 ppm. Moreover, the “MIC (TSB media) Psae” value against Pseudomonas aeruginosa is listed as 300 ppm. Besides, in the assay on Aspergillus niger, the “MIC (TSB media) Anig” value was determined as 3.2 ppm. Also, the “MIC (TSB media) Ecol” value in the assay on Escherichia coli is 5 ppm.
Consider `CCCCCCCCCCCCCC[N+]1(CC#CBr)CCOCC1` [Compound 2, 1-tetradecyl-1-(3-bromopropargyl)-morpholinium benzenesulfonate], for which the minimum inhibitory concentration (MIC) in the assay with Rhodotorula rubra and in the assay on Aspergillus niger was less than 4 µg/mL each time. The “MIC (TSB media) Psae” value in the assay with Pseudomonas aeruginosa was 63 ppm. Moreover, the “MIC (TSB media) Ecol” value against Escherichia coli worked out at 8 ppm.
On to `CCCCCCCC[N+](CC#CBr)(CCCCCCCC)CCCCCCCC` [Compound 18, trioctyl-(3-bromopropargyl) ammonium benzenesulfonate], for which the MIC with Rhodotorula rubra was 1.6 µg/mL; with Pseudomonas aeruginosa, 16 µg/mL; in the assay with Aspergillus niger, 1.6 µg/mL; with Escherichia coli it was less than 4 µg/mL.
Regarding `CCCCCCCCCCCCC[N+]1(CC#CBr)CCOCC1` [Compound 10, 1-tridecyl-1-(3-bromopropargyl)-morpholinium bromide], the MIC with Rhodotorula rubra was less than 4 µg/mL; in the assay with Pseudomonas aeruginosa, 250 µg/mL; in the assay on Aspergillus niger, 16 µg/mL; with Escherichia coli it was 32 µg/mL.
Turning to `CCCCCCCCCCCCCC[N+]1(CC#CI)CCOCC1` [Compound 32, reference compound], the MIC is 4 µg/mL in the assay with Rhodotorula rubra, 125 µg/mL in the assay with Pseudomonas aeruginosa, 4 µg/mL with Aspergillus niger and 8 µg/mL with Escherichia coli.
Turning to `CCCCCCCC[N+](C)(CC#CBr)CCCCCCCC` [Compound 25, methyldioctyl(3-bromopropargyl) ammonium 4-methylbenzenesulfonate], the MIC with Rhodotorula rubra stood at 6.3 µg/mL; in the assay with Pseudomonas aeruginosa, 500 µg/mL; with Aspergillus niger, 12.5 µg/mL; in the assay on Escherichia coli, 32 µg/mL.
For the compound `CCCCCCCCCCCCCC[N+]1(CC#CBr)CCCCC1C` (stereo not drawn) [Compound 16, 1-tetradecyl-1-(3-bromopropargyl)-(2-methyl)piperidinium benzenesulfonate], the “MIC (TSB media) Rrub” value against Rhodotorula rubra is less than 4 ppm. Further, in the assay with Pseudomonas aeruginosa, the “MIC (TSB media) Psae” value is 500 ppm. Besides, the “MIC (TSB media) Anig” value with Aspergillus niger was less than 4 ppm. Also, the “MIC (TSB media) Ecol” value in the assay with Escherichia coli was 8 ppm.
`CCCCCCCCCCCCCC[N+]1(CC#CBr)CCCC1` [Compound 5, 1-tetradecyl-1-(3-bromopropargyl)-pyrrolidinium benzenesulfonate]: the “MIC (TSB media) Rrub” value against Rhodotorula rubra is recorded as less than 4 ppm. The “MIC (TSB media) Psae” value with Pseudomonas aeruginosa is listed as 500 ppm. The “MIC (TSB media) Anig” value against Aspergillus niger is less than 4 ppm. The “MIC (TSB media) Ecol” value against Escherichia coli worked out at 8 ppm.
Regarding `CCCCCCCCCCCCCCCC[N+]1(CC#CBr)CCOCC1` [Compound 13, 1-hexadecyl-1-(3-bromopropargyl)-morpholinium methanesulfonate], in the assay with Rhodotorula rubra, the “MIC (TSB media) Rrub” value amounted to 32 ppm. The “MIC (TSB media) Psae” value against Pseudomonas aeruginosa was found to be 500 ppm. Also, in the assay with Aspergillus niger, the “MIC (TSB media) Anig” value is reported as 16 ppm. Also, in the assay on Escherichia coli, the “MIC (TSB media) Ecol” value is reported as greater than 500 ppm.
Consider `CCCCCCCCCCCCCCCC[N+]1(CC#CBr)CCOCC1` [Compound 11, 1-hexadecyl-1-(3-bromopropargyl)-morpholinium bromide], for which the “MIC (TSB media) Rrub” value against Rhodotorula rubra is recorded as less than 4 ppm. In addition, in the assay with Pseudomonas aeruginosa, the minimum inhibitory concentration (MIC) came out at 500 µg/mL. For the same compound, in the assay on Aspergillus niger, the “MIC (TSB media) Anig” value is given as less than 4 ppm. For the same compound, in the assay on Escherichia coli, the “MIC (TSB media) Ecol” value is reported as 16 ppm.
Consider `CCCCCCCCCCCCCC[N+]1(CC#CBr)CCOCC1` [Compound 9, 1-tetradecyl-1-(3-bromopropargyl)-morpholinium bromide], for which, in the assay with Rhodotorula rubra, the “MIC (TSB media) Rrub” value was less than 4 ppm. Also, the “MIC (TSB media) Psae” value against Pseudomonas aeruginosa turned out to be 125 ppm. For the same compound, the “MIC (TSB media) Anig” value in the assay with Aspergillus niger is recorded as less than 4 ppm. In addition, in the assay on Escherichia coli, the “MIC (TSB media) Ecol” value is listed as 8 ppm.
On to `CCCCCCCCCCCCCC[N+]1(CC#CBr)CCCCC1C` (stereo not drawn) [Compound 14, 1-tetradecyl-1-(3-bromopropargyl)-(2-methyl)piperidinium 4-methylbenzenesulfonate], for which the “MIC (TSB media) Rrub” value in the assay on Rhodotorula rubra is on record as less than 4 ppm. The “MIC (TSB media) Psae” value against Pseudomonas aeruginosa worked out at 125 ppm. The MIC in the assay with Aspergillus niger and in the assay with Escherichia coli was less than 4 µg/mL each time.
With `CCCCCCCC[N+](CC#CBr)(CCCCCCCC)CCCCCCCC` [Compound 20, trioctyl(3-bromopropargyl) ammonium 4-methylbenzenesulfonate], the “MIC (TSB media) Rrub” value in the assay with Rhodotorula rubra is recorded as 0.8 ppm. The “MIC (TSB media) Psae” value in the assay on Pseudomonas aeruginosa came to 8 ppm. Also, the “MIC (TSB media) Anig” value with Aspergillus niger was determined as 3.2 ppm. Moreover, the “MIC (TSB media) Ecol” value against Escherichia coli was less than 4 ppm.
Take `CCCCCC[N+](CC#CBr)(CCCCCC)CCCCCC` [Compound 22, trihexyl(3-bromopropargyl) ammonium benzenesulfonate]: the “MIC (TSB media) Rrub” value with Rhodotorula rubra was 12.5 ppm. For the same compound, the minimum inhibitory concentration (MIC) in the assay on Pseudomonas aeruginosa turned out to be 500 µg/mL; in the assay on Aspergillus niger, 25 µg/mL; with Escherichia coli, 125 µg/mL.
Regarding “dimethyldodecyl ammonium 4-methylbenzenesulfonate [Compound 21]”, in the assay with Rhodotorula rubra, the “MIC (TSB media) Rrub” value is 3.2 ppm. In the assay on Pseudomonas aeruginosa, the “MIC (TSB media) Psae” value turned out to be 250 ppm. Besides, in the assay with Aspergillus niger, the “MIC (TSB media) Anig” value came to 6.3 ppm. For the same compound, the “MIC (TSB media) Ecol” value against Escherichia coli stood at 32 ppm.
For the compound `CCCCCCCCCCCCCC[N+]1(CC#CBr)CCOCC1` [Compound 7, 1-tetradecyl-1-(3-bromopropargyl)-morpholinium n-butanesulfonate], the “MIC (TSB media) Rrub” value with Rhodotorula rubra is given as less than 4 ppm. Besides, the “MIC (TSB media) Psae” value in the assay with Pseudomonas aeruginosa came to 500 ppm. Moreover, the “MIC (TSB media) Anig” value against Aspergillus niger is reported as less than 4 ppm. Moreover, the “MIC (TSB media) Ecol” value in the assay on Escherichia coli was 16 ppm.
In the case of `CCCCCCCCCCCCCC[N+]1(CC#CBr)CCOCC1` [Compound 3, 1-tetradecyl-1-(3-bromopropargyl)-morpholinium 4-methylbenzenesulfonate], the “MIC (TSB media) Rrub” value in the assay with Rhodotorula rubra is less than 4 ppm. In the assay with Pseudomonas aeruginosa, the “MIC (TSB media) Psae” value is 250 ppm. In addition, the “MIC (TSB media) Anig” value in the assay with Aspergillus niger is on record as less than 4 ppm. Moreover, the “MIC (TSB media) Ecol” value in the assay on Escherichia coli is 8 ppm.
On to `CCCCCC[N+](CC#CI)(CCCCCC)CCCCCC` [Compound 31, reference compound], for which the MIC was 6.3 µg/mL with Rhodotorula rubra, greater than 500 µg/mL with Pseudomonas aeruginosa, 12.5 µg/mL with Aspergillus niger and 63 µg/mL with Escherichia coli.
Turning to `CCCCCCCCCCCCCC[N+]1(CC#CBr)CCCC1` [Compound 1, 1-tetradecyl-1-(3-bromopropargyl)-pyrrolidinium 4-methylbenzenesulfonate], the minimum inhibitory concentration (MIC) was less than 4 µg/mL with Rhodotorula rubra, greater than 500 µg/mL with Pseudomonas aeruginosa, less than 4 µg/mL in the assay with Aspergillus niger and 8 µg/mL in the assay with Escherichia coli.
Turning to `CCCCCCCCCCCC[N+](CC#CBr)(CCCCCCCCCCCC)CCCCCCCCCCCC` [Compound 24, tridodecyl(3-bromopropargyl) ammonium 4-methylbenzenesulfonate], the minimum inhibitory concentration (MIC) is greater than 50 µg/mL in the assay with Rhodotorula rubra, 500 µg/mL with Pseudomonas aeruginosa, greater than 50 µg/mL in the assay on Aspergillus niger and 500 µg/mL in the assay on Escherichia coli.
For the compound `CCCCCC[N+](CC#CBr)(CCCCCC)CCCCCC` [Compound 23, trihexyl(3-bromopropargyl) ammonium 4-methylbenzenesulfonate], the “MIC (TSB media) Rrub” value with Rhodotorula rubra is reported as less than 50 ppm. The “MIC (TSB media) Psae” value against Pseudomonas aeruginosa came to 500 ppm. Also, the “MIC (TSB media) Anig” value in the assay on Aspergillus niger worked out at 50 ppm. Further, the “MIC (TSB media) Ecol” value against Escherichia coli came to 250 ppm.
With `CCCCCCCC[N+](C)(C)CC#CBr` [Compound 19, dimethyloctyl(3-bromopropargyl) ammonium benzenesulfonate], the MIC was less than 4 µg/mL in the assay on Rhodotorula rubra, 250 µg/mL with Pseudomonas aeruginosa, less than 4 µg/mL in the assay with Aspergillus niger and 16 µg/mL with Escherichia coli.
Take `CCCCCCCCCCCCCC[N+]1(CC#CBr)CCCC1` [Compound 8, 1-tetradecyl-1-(3-bromopropargyl)-pyrrolidinium n-butanesulfonate]: in the assay with Rhodotorula rubra, the “MIC (TSB media) Rrub” value is on record as less than 4 ppm. In the assay with Pseudomonas aeruginosa, the “MIC (TSB media) Psae” value came out at 250 ppm. Further, the “MIC (TSB media) Anig” value with Aspergillus niger is on record as less than 4 ppm. In the assay on Escherichia coli, the “MIC (TSB media) Ecol” value is recorded as less than 4 ppm.
With `CCCCCCCCCCCC[N+]1(CC#CBr)CCOCC1` [Compound 12, 1-dodecyl-1-(3-bromopropargyl)-morpholinium 4-methylbenzenesulfonate], the minimal inhibitory concentration (MIC) is less than 4 µg/mL in the assay on Rhodotorula rubra, 500 µg/mL with Pseudomonas aeruginosa, 16 µg/mL with Aspergillus niger and 63 µg/mL with Escherichia coli.

(Values after patent publication US5411933A, “Bromopropargyl quarternary ammonium compounds having antimicrobial activity” (Rohm & Haas Company, priority 1994, dated 1995).)
